From article PMC9297976 (Journal of Applied Toxicology, 2021)

Key:
medaka Esr1 (mEsr1) [1] = target: T1, medaka Esr1 (mEsr1) (Oryzias latipes, UniProt P50241); assay: cell-based; set-up: species or system Japanese medaka (Oryzias latipes)
T1 sequence (P50241 1-620): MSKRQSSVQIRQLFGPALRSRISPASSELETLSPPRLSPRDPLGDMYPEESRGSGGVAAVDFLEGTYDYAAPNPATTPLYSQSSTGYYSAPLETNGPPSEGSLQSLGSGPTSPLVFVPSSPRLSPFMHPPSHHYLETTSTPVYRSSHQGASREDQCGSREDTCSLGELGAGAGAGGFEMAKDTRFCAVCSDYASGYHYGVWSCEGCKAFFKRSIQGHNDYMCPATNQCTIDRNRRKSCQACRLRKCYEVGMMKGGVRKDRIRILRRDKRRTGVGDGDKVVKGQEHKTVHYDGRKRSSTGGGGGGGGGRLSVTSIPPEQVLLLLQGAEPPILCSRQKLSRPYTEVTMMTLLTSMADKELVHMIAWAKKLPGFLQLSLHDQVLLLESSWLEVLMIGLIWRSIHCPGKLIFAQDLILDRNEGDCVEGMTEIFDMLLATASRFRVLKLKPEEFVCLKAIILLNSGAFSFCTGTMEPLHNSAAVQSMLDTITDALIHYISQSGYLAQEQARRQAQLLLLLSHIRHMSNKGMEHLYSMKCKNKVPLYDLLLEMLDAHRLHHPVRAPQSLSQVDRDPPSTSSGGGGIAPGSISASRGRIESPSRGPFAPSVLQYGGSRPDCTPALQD

medaka Esr1 (mEsr1) [2] = target: T1, medaka Esr1 (mEsr1); assay: Medaka Esr1 reporter gene assay, antagonist assay; format: cell-based, Japanese medaka (Oryzias latipes); conditions: E2 spiked at 0.2 nM (A); MAC = 1.0 × 10^−5 M
medaka ARβ (mArβ) [3] = target: T2, medaka ARβ (mArβ) (Oryzias latipes, UniProt D1MV73); assay: Medaka ARβ reporter gene assay, agonist assay; format: cell-based, Japanese medaka (Oryzias latipes); conditions: MAC = 1.0 × 10^−5 M
T2 sequence (D1MV73 1-744): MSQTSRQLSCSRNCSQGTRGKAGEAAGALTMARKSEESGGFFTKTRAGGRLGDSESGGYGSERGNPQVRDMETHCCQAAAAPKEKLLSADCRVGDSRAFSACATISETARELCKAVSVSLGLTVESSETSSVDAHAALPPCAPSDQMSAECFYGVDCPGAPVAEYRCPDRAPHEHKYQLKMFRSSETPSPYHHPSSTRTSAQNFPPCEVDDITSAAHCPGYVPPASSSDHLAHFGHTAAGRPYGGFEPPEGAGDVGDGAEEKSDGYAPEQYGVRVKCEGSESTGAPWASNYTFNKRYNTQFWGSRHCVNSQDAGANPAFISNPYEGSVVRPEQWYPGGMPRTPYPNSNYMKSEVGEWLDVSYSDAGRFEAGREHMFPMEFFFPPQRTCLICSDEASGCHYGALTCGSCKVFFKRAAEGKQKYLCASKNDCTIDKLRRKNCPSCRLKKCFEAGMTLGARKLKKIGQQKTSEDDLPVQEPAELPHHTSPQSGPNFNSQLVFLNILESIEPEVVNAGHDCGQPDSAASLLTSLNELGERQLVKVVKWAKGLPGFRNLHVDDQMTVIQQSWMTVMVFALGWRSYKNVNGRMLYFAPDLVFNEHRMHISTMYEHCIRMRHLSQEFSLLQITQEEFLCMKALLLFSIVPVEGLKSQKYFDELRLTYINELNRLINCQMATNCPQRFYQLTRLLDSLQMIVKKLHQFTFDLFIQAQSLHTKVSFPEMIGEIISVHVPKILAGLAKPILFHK

medaka ARβ (mArβ) [4] = target: T2, medaka ARβ (mArβ); assay: Medaka ARβ reporter gene assay, antagonist assay; format: cell-based, Japanese medaka (Oryzias latipes); conditions: 11‐KT spiked at 10 nM (C); MAC = 1.0 × 10^−5 M
[5] = tested on: Japanese medaka (Oryzias latipes); assay: Fish Short‐Term Reproduction Assay; format: in vivo; conditions: for GSI Female / GSI Male / HSI Female / HSI Male / Length Female / Length Male / Weight Female / Weight Male: completion of exposure
Japanese medaka = conditions: ref Flynn et al. (2018); cited from earlier work
[6] = 598 μg/L measured, 21 d, sig. ↑ vs control
[7] = 952 μg/L measured, 21 d, sig. ↑ vs control
[8] = measured concentration 196 μg/L
[9] = measured concentration 598 μg/L
[10] = measured concentration 952 μg/L

CCOP(=S)(OCC)Oc1cc(C)nc(C(C)C)n1 [DZ, Diazinon]
Agonistic activity PC10 (medaka Esr1 (mEsr1) [1]): PC10 = 1.0 × 10^−5 M
In vitro positive: Esr (medaka Esr1 (mEsr1) [1]; mode of action in which EC50 or PC10 was obtained in RGA): Esr
Antagonistic activity (medaka Esr1 (mEsr1) [2]): NE (MAC = 1.0 × 10^−5 M)^(A)
Agonistic activity (medaka ARβ (mArβ) [3]): NE (MAC = 1.0 × 10^−5 M)
Antagonistic activity (medaka ARβ (mArβ) [4]): NE (MAC = 1.0 × 10^−5 M)^(C)
Individuals with symptoms of presumed paralysis of motor function ([5]; 38 μg/L): 12.5%
Fertility rate ([5]; 38 μg/L measured, 21 d): 96 ± 0.8%
Hepatic VTG, female ([5]; 38 μg/L measured, 21 d): 2,665 ± 1942 ng/mg‐liver
Hepatic VTG, male ([5]; 38 μg/L measured, 21 d): 0.13 ± 0.16 ng/mg‐liver
Mortality ([5]; 38 μg/L measured, 21 d): 4.2%
Mortality, number of dead fish ([5]; 38 μg/L measured, 21 d): 1
Number of fertilized eggs (per female per day) ([5]; 38 μg/L measured, 21 d): 18 ± 0.7
Number of total eggs (per female per day) ([5]; 38 μg/L measured, 21 d): 19 ± 0.6
SSC female (joint plates with papillary processes) ([5]; 38 μg/L measured, 21 d): 0 ± 0
SSC male (joint plates with papillary processes) ([5]; 38 μg/L measured, 21 d): 82 ± 16
Fish with symptoms of presumed paralysis of motor function (in words) ([5]; 196 μg/L level and above): all fish
Hepatic VTG, female ([5]; 196 μg/L measured, 21 d): 1722 ± 1,394 ng/mg‐liver
Hepatic VTG, male ([5]; 196 μg/L measured, 21 d): 0.08 ± 0.14 ng/mg‐liver
Mortality ([5]; 196 μg/L measured, 21 d): 4.2%
Mortality, number of dead fish ([5]; 196 μg/L measured, 21 d): 1
SSC female (joint plates with papillary processes) ([5]; 196 μg/L measured, 21 d): 0 ± 0
SSC male (joint plates with papillary processes) ([5]; 196 μg/L measured, 21 d): 84 ± 19
Fertility rate ([5]; 196 μg/L measured, 21 d, sig. ↓ vs control): 12 ± 6.3%
Hepatic VTG, female ([5]; 598 μg/L measured, 21 d): 661 ± 552 ng/mg‐liver
Hepatic VTG, male ([5]; 598 μg/L measured, 21 d): 0.06 ± 0.04 ng/mg‐liver
SSC female (joint plates with papillary processes) ([5]; 598 μg/L measured, 21 d): 0 ± 0
SSC male (joint plates with papillary processes) ([5]; 598 μg/L measured, 21 d): 89 ± 17
Mortality [5, 6]: 42%
Mortality, number of dead fish [5, 6]: 10
Fertility rate ([5]; 598 μg/L measured, 21 d, sig. ↓ vs control): 55 ± 6.7%
Hepatic VTG, female ([5]; 952 μg/L measured, 21 d): 1,621 ± 1,314 ng/mg‐liver
Hepatic VTG, male ([5]; 952 μg/L measured, 21 d): 0.89 ± 1.67 ng/mg‐liver
SSC female (joint plates with papillary processes) ([5]; 952 μg/L measured, 21 d): 0 ± 0
SSC male (joint plates with papillary processes) ([5]; 952 μg/L measured, 21 d): 89 ± 15
Mortality [5, 7]: 58%
Mortality, number of dead fish [5, 7]: 14
Fecundity, number of total eggs (in words) ([5]; 21 d): statistically significant decrease
LOECmVTG ([5]; LOEC on VTG induction in males): ND (>952) μg/L
LOECREPRO ([5]; LOEC on reproduction (fecundity and/or fertility)): 196 µg/L
LOECTOX ([5]; lowest observed effect concentration on mortality): 196 µg/L
GSI Female ([5]; measured concentration 38 μg/L): 12.3 ± 1.3%
GSI Male ([5]; measured concentration 38 μg/L): 0.9 ± 0.4%
HSI Female ([5]; measured concentration 38 μg/L): 5.3 ± 1.20%
HSI Male ([5]; measured concentration 38 μg/L): 2.8 ± 1.70%
Length Female ([5]; measured concentration 38 μg/L): 30.7 ± 1.0 mm
Length Male ([5]; measured concentration 38 μg/L): 30.1 ± 0.6 mm
Weight Female ([5]; measured concentration 38 μg/L): 338 ± 36 mg
Weight Male ([5]; measured concentration 38 μg/L): 294 ± 21 mg
GSI Female [5, 8]: 6.8 ± 3.5%
GSI Male [5, 8]: 0.6 ± 0.2%
HSI Female [5, 8]: 2.0 ± 0.70%
HSI Male [5, 8]: 1.6 ± 0.60%
Length Female [5, 8]: 28.5 ± 1.1 mm
Length Male [5, 8]: 28.5 ± 0.6 mm
Weight Female [5, 8]: 217 ± 19 mg
Weight Male [5, 8]: 200 ± 14 mg
GSI Female [5, 9]: 3.3 ± 0.7%
GSI Male [5, 9]: 0.4 ± 0.1%
HSI Female [5, 9]: 1.9 ± 0.30%
HSI Male [5, 9]: 1.2 ± 0.40%
Length Female [5, 9]: 28.7 ± 0.0 mm
Length Male [5, 9]: 29.6 ± 0.2 mm
Weight Female [5, 9]: 203 ± 47 mg
Weight Male [5, 9]: 190 ± 13 mg
GSI Female [5, 10]: 6.9 ± 2.4%
GSI Male [5, 10]: 0.5 ± 0.1%
HSI Female [5, 10]: 1.6 ± 0.50%
HSI Male [5, 10]: 1.5 ± 0.60%
Length Female [5, 10]: 27.5 ± 0.8 mm
Length Male [5, 10]: 28.3 ± 1.2 mm
Weight Female [5, 10]: 203 ± 26 mg
Weight Male [5, 10]: 183 ± 20 mg
LOEC on fecundity (Japanese medaka): 2.9 µg/L
LOEC on growth (Japanese medaka): 5.2 µg/L
